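All cell lines were grown in 96-well plates and treated with compound for 48 hours. GI50 is the concentration that inhibits growth by half.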 Active and inactive are the calls of the source. Cut-off read from the data, not from the text of the source: active = GI50 up to about 1.1 µM and inactive = higher.
Key:
Assay in all cases: growth of human tumour cells (NCI), 48 h
786-0 = system: 786-0
A498 = system: A498
A549 = system: A549
ACHN = system: ACHN
BT-549 = system: BT-549
CAKI-1 = system: CAKI-1
CCRF-CEM = system: CCRF-CEM
COLO 205 = system: COLO 205
DLD-1 = system: DLD-1
DMS-114 = system: DMS-114
DMS-273 = system: DMS-273
DU-145 = system: DU-145
EKVX = system: EKVX
HCC 2998 = system: HCC 2998
HCT-116 = system: HCT-116
HCT-15 = system: HCT-15
HL-60 = system: HL-60
HOP-18 = system: HOP-18
HOP-62 = system: HOP-62
HOP-92 = system: HOP-92
HT-29 = system: HT-29
Hs-578T = system: Hs-578T
IGROV-1 = system: IGROV-1
K562 = system: K562
KM-20L2 = system: KM-20L2
KM12 = system: KM12
LOX IMVI = system: LOX IMVI
LXFL 529 = system: LXFL 529
M14 = system: M14
M19-MEL = system: M19-MEL
MCF7 = system: MCF7
MDA-MB-231 = system: MDA-MB-231
MDA-MB-435 = system: MDA-MB-435
MDA-N = system: MDA-N
MOLT-4 = system: MOLT-4
Malme-3M = system: Malme-3M
NCI-H226 = system: NCI-H226
NCI-H23 = system: NCI-H23
NCI-H460 = system: NCI-H460
NCI-H522 = system: NCI-H522
NCI/ADR-RES = system: NCI/ADR-RES
OVCAR-3 = system: OVCAR-3
OVCAR-4 = system: OVCAR-4
OVCAR-5 = system: OVCAR-5
OVCAR-8 = system: OVCAR-8
PC-3 = system: PC-3
RPMI-8226 = system: RPMI-8226
RXF 393 = system: RXF 393
SF-268 = system: SF-268
SF-295 = system: SF-295
SF-539 = system: SF-539
SK-MEL-28 = system: SK-MEL-28
SK-MEL-2 = system: SK-MEL-2
SK-MEL-5 = system: SK-MEL-5
SK-OV-3 = system: SK-OV-3
SN12C = system: SN12C
SNB-19 = system: SNB-19
SNB-75 = system: SNB-75
SNB-78 = system: SNB-78
SR = system: SR
SW-620 = system: SW-620
T47D = system: T47D
TK-10 = system: TK-10
U-251 = system: U-251
UACC-257 = system: UACC-257
UACC-62 = system: UACC-62
UO-31 = system: UO-31
XF498 = system: XF498

Question: What does the source list for `CC1=CC(=O)c2cccc(O)c2C1=O`?
Answer: GI50 (786-0): 1700 nM (inactive); GI50 (A498): 18500 nM (inactive); GI50 (A549): 14900 nM (inactive); GI50 (ACHN): 1780 nM (inactive); GI50 (BT-549): 1750 nM (inactive); GI50 (CAKI-1): 1880 nM (inactive); GI50 (CCRF-CEM): 1910 nM (inactive); GI50 (COLO 205): 2090 nM (inactive); GI50 (DLD-1): 1660 nM (inactive); GI50 (DMS-114): 2740 nM (inactive); GI50 (DMS-273): 2420 nM (inactive); GI50 (DU-145): 8050 nM (inactive); GI50 (EKVX): 4290 nM (inactive); GI50 (HCC 2998): 8570 nM (inactive); GI50 (HCT-116): 1910 nM (inactive); GI50 (HCT-15): 1560 nM; GI50 (HL-60): 935 nM (active); GI50 (HOP-18): 1700 nM (inactive); GI50 (HOP-62): 17100 nM (inactive); GI50 (HOP-92): 1850 nM (inactive); GI50 (HT-29): 4270 nM (inactive); GI50 (Hs-578T): 3070 nM (inactive); GI50 (IGROV-1): 13200 nM (inactive); GI50 (K562): 3020 nM (inactive); GI50 (KM-20L2): 20500 nM (inactive); GI50 (KM12): 12600 nM (inactive); GI50 (LOX IMVI): 2520 nM (inactive); GI50 (LXFL 529): 1670 nM (inactive); GI50 (M14): 1810 nM (inactive); GI50 (M19-MEL): 1980 nM (inactive); GI50 (MCF7): 1990 nM (inactive); GI50 (MDA-MB-231): 1760 nM (inactive); GI50 (MDA-MB-435): 1780 nM (inactive); GI50 (MDA-N): 1900 nM (inactive); GI50 (MOLT-4): 473 nM (active); GI50 (Malme-3M): 1620 nM (inactive); GI50 (NCI-H226): 7280 nM (inactive); GI50 (NCI-H23): 2960 nM (inactive); GI50 (NCI-H460): 5750 nM (inactive); GI50 (NCI-H522): 2250 nM (inactive); GI50 (NCI/ADR-RES): 1820 nM (inactive); GI50 (OVCAR-3): 1530 nM (inactive); GI50 (OVCAR-4): 1920 nM (inactive); GI50 (OVCAR-5): 8090 nM (inactive); GI50 (OVCAR-8): 2560 nM (inactive); GI50 (PC-3): 2100 nM (inactive); GI50 (RPMI-8226): 3530 nM (inactive); GI50 (RXF 393): 1880 nM (inactive); GI50 (SF-268): 6760 nM (inactive); GI50 (SF-295): 14300 nM (inactive); GI50 (SF-539): 5700 nM (inactive); GI50 (SK-MEL-28): 4250 nM (inactive); GI50 (SK-MEL-2): 2090 nM (inactive); GI50 (SK-MEL-5): 1790 nM (inactive); GI50 (SK-OV-3): 14300 nM (inactive); GI50 (SN12C): 2320 nM (inactive); GI50 (SNB-19): 8070 nM (inactive); GI50 (SNB-75): 8730 nM (inactive); GI50 (SNB-78): > 32100 nM (inactive); GI50 (SR): 1800 nM (inactive); GI50 (SW-620): 1990 nM (inactive); GI50 (T47D): 1770 nM (inactive); GI50 (TK-10): 2430 nM (inactive); GI50 (U-251): 16500 nM (inactive); GI50 (UACC-257): 1790 nM (inactive); GI50 (UACC-62): 1960 nM (inactive); GI50 (UO-31): 1790 nM (inactive); GI50 (XF498): 1790 nM (inactive)

Source: ChEMBL document CHEMBL1201862, “PubChem BioAssay data set” (2004)
